The record followed here is patent publication US20030088061A1, “Materials and methods to modulate ligand binding/enzymatic activity of alpha/beta proteins containing an allosteric regulatory site” (priority 2000, published 2003).

Where “and” joins values, the source holds several entries; their conditions need not be identical. Identical values can stand only once. Like-named read-outs stand apart in the source and are kept apart here.

Series [1] addresses T1, CD11b (Mac-1) (Homo sapiens, UniProt P11215).
T1 construct: endogenous in cells; host or cells: neutrophils from fresh human blood
The experiment in a line: CD11b-mediated neutrophil adhesion to fibrinogen. The series is classed as cell-based. How it is done: The adhesion assay described above for CD18/CD11b-(Mac-1)-mediated adhesion of HL-60 cells to ICAM-1 was carried out with the following modifications. Each well was coated overnight at 4° C. with 50 μl of glycophorin (10 μg/ml), fibrinogen (5 μg/ml) or with anti-CD18 monoclonal antibody (22F12C, 5 μg/ml) and anti-CD11b monoclonal antibody (44AACB, 5 μg/ml) in 50 mM bicarbonate buffer (pH 9.6). Plates were blocked with 1% human serum albumin and no blocking antibody was used. Neutrophils were isolated from fresh heparin whole human blood by density gradient centrifugation and 100 μl of the cells (4×10^6 cells/ml) in adhesion buffer was added to each well. Plates were incubated at 37° C. for 10 minutes.

The target in series [2] is T2, α2β1 (Homo sapiens, UniProt P05556+P17301).
T2 construct: endogenous in cells; host or cells: Jurkat cells
T2 sequence (P17301 30-1181): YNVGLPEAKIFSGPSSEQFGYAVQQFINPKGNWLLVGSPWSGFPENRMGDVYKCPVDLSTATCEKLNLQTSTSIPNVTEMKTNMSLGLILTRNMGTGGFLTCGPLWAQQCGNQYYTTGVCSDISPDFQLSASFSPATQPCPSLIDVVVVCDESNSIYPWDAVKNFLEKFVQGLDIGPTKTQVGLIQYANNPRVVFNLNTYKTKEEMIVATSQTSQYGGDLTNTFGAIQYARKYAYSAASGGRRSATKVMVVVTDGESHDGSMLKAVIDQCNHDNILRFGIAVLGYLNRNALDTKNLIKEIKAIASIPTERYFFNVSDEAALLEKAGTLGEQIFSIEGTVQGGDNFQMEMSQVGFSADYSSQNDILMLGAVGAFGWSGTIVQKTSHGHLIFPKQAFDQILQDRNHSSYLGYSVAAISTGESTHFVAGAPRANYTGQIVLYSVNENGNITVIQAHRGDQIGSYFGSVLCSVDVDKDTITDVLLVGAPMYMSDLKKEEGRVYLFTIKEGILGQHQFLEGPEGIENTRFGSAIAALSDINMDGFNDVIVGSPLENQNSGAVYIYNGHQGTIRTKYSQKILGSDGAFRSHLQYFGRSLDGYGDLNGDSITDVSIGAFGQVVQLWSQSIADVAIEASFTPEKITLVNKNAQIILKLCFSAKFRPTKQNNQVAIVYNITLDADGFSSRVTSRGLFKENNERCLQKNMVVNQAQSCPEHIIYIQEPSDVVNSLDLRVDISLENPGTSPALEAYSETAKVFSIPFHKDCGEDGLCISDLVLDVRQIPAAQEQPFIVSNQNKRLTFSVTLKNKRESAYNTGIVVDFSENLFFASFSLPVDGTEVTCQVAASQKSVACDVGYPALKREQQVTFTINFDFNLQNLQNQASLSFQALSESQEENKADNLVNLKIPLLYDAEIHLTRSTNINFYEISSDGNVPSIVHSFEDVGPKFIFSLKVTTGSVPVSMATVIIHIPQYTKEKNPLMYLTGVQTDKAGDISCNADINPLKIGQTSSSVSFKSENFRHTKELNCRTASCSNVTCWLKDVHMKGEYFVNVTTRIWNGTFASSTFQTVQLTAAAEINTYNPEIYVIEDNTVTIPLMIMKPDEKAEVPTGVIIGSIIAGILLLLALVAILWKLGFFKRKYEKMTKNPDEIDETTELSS
T2 sequence (P05556 21-798 partner): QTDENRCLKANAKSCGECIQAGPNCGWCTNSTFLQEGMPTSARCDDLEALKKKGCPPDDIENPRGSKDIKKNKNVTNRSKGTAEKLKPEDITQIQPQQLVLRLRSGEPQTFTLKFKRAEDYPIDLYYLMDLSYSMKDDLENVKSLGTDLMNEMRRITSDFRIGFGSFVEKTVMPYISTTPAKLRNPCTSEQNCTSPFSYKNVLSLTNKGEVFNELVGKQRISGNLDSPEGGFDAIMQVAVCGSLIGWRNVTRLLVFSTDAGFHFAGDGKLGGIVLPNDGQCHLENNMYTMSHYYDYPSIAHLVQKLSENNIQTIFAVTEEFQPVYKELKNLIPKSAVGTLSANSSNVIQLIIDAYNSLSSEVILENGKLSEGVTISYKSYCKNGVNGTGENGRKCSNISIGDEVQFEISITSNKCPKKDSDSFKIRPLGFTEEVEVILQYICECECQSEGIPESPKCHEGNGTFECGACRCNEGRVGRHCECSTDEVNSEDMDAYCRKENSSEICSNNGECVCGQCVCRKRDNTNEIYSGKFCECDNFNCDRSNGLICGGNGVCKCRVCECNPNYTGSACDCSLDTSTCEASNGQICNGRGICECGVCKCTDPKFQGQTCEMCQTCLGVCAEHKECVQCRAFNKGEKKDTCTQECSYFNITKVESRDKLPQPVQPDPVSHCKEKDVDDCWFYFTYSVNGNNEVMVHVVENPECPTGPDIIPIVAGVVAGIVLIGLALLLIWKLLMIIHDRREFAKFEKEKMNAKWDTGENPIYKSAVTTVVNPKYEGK
The experiment in a line: Jurkat cell adhesion to rat type I collagen. As to conditions: Jurkat cells, PMA. The format is cell-based. As to the method: Binding studies using monoclonal antibodies to each of these integrins has shown that Jurkat cell adhesion to rat type I collagen is mediated predominantly through interaction with alpha2. […] The assay was carried out using a modification of a procedure previously described [Sadhu, et al., supra]. Immunlon 4 plates (Dynex Technologies, Chantilly, Va.) were coated overnight at 4° C. with (i) 50 μl rat type I collagen (Sigma) (20 μg/ml in CMF-PBS), (ii) anti-beta1 monoclonal antibody 3S3 (5 μg/ml) in bicarbonate buffer, pH 9.6, (iii) or bicarbonate buffer alone. Plates were washed once with 200 μl/well D-PBS and blocked with 1% BSA (100 μl/well) in D-PBS for 1 hr at room temperature. […] Adherent cells were fixed by additional of 50 μl/well 14% glutaraldehyde in D-PBS and incubation at room temperature for 2 hr. The plates were washed with dH2O and stained with 50 μl/well 0.5% crystal violet in 10% ethanol for 5 min at room temperature. The plates were washed in several changes of dH2O, after which 70% ethanol was added. Adherent cells were quantitated by determining absorbance at 570 nm and 410 nm using a […] 250 microplate spectrophotometer system (Molecular Devices, Sunnyvale Calif.). The percentage of cell binding was determined using the formula below. [formula] Data was normalized using the formula: [formula] […] These 21 compounds were further analyzed for specificity and toxicity. […] The assay was carried out in a manner similar to the collagen adhesion assay described above except that […] with VCAM-1/Ig instead of collagen. Binding to VCAM-1 was dependent on surface expression of α4β1.

The subject of series [3] is Jurkat cells. The experiment in a line: Jurkat cell toxicity (CellTiter 96 Aqueous One Solution). As to conditions: four hr or 24 hr incubation. The format is cell-based. As to the method: For 21 compounds, toxicity of Jurkat cells was assessed following a four hr or 24 hr incubation. […] A two-fold serial dilution series of each compound was tested in a concentration range of 40 μM to 0.15 μM.

The target in series [4] is α4β1 (Homo sapiens, UniProt P05556+P13612). The series can be described thus: Jurkat cell binding to immobilized VCAM-1/Ig. The series is classed as cell-based. On the set-up: endogenous in cells; host or cells: Jurkat cells. The settings on record: Jurkat cells; tested 0.15 μM to 20 μM; read-out: α7β1/VCAM EC50. As to the method:
These 21 compounds were further analyzed for specificity and toxicity. […] The assay was carried out in a manner similar to the collagen adhesion assay described above except that […] with VCAM-1/Ig instead of collagen. Binding to VCAM-1 was dependent on surface expression of α4β1.

The target of series [5] is iC3b (Homo sapiens (Human)) (UniProt P01024). The experiment in a line: adhesion of COS-7 transfectants to immobilized iC3b.
Series [6] addresses ICAM-1/Fc (Homo sapiens (Human)) (UniProt P05362). The series can be described thus: adhesion of COS-7 transfectants to immobilized ICAM-1/Fc.
Setting [7] is: after SAR efforts based on Cmpd S, read-out: IC50 (inhibition potency), neutrophil adhesion to fibrinogen.
[8] abbreviates: read-out: IC50, neutrophil adhesion to fibrinogen.

α4β1, sequence (P13612 34-1032): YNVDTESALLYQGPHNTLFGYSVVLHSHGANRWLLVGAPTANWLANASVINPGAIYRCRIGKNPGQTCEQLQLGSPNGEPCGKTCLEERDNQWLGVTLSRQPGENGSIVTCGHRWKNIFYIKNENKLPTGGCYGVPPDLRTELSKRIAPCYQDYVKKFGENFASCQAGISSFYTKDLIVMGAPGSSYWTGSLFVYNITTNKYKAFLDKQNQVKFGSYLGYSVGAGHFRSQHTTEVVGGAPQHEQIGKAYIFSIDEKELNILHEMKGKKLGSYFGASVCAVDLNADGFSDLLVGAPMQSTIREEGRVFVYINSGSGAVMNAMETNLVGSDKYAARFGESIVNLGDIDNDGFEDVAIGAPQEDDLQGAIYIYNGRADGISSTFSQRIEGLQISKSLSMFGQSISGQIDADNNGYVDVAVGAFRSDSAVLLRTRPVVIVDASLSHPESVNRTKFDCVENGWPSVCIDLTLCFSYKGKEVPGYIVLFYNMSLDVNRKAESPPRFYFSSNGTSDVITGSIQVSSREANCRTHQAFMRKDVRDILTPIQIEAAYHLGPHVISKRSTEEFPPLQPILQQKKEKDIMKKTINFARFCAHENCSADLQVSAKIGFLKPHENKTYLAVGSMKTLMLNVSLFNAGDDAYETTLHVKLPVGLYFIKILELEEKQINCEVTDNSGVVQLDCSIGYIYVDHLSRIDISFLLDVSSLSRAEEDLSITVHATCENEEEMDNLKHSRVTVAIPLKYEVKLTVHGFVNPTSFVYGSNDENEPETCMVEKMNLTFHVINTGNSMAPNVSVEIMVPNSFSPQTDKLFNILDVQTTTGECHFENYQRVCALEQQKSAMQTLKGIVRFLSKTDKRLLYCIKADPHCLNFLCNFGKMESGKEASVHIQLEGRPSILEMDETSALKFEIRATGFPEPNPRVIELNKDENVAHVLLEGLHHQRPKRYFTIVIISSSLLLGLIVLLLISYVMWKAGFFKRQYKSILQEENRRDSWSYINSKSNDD
α4β1, sequence (P05556 21-798): as the sequence (P05556 21-798 partner) above

`CC(CN(C)C)NCc1ccccc1Sc1ccc(C(C)(C)C)cc1` (stereo not drawn) [Cmpd AA]: the IC50 – broadly, the concentration at which inhibition is half-maximal – in series [1] (setting [7]) is below 0.2 µM.

In the case of `CC(C)(C)c1ccc(Sc2ccccc2CNCCN2CCCC2)cc1.O=C(O)C(F)(F)F.O=C(O)C(F)(F)F` [Cmpd AB], the EC50 in series [2] was 13 µM; in series [4], above 20 µM. Moreover, in series [3], the “TOXICITY LD50” value was above 40 µM.

Take `CN(C)CCCCNCc1ccccc1Sc1c(Cl)cccc1Cl` [Cmpd AC]: the half-maximal inhibitory concentration (IC50) in series [1] (setting [7]) is below 0.2 µM.

As for `CN(CCCNCc1ccccc1Sc1c(Cl)cccc1Cl)c1ccccc1.O=C(O)C(F)(F)F.O=C(O)C(F)(F)F` [Cmpd AD], the EC50 in series [2] was 2 µM; in series [4], above 20 µM. In addition, in series [3], the “TOXICITY LD50” value was determined as 3 µM.

Turning to `CN(CCCNCc1ccccc1Sc1ccc2ccccc2c1)c1ccccc1.O=C(O)C(F)(F)F.O=C(O)C(F)(F)F` [Cmpd AE], the EC50 is 7 µM in series [2] and above 20 µM in series [4]. Further, the “TOXICITY LD50” value in series [3] is 30 µM.

Regarding `O=C(O)C(F)(F)F.O=C(O)C(F)(F)F.c1ccc(CN2CCC(NCc3ccccc3Sc3ccc4ccccc4c3)CC2)cc1` [Cmpd AF], the EC50 was 6 µM in series [2] and above 20 µM in series [4]. For the same compound, in series [3], the “TOXICITY LD50” value came out at 35 µM.

Turning to `CCN1CCCC1CNCc1ccccc1Sc1ccc2ccccc2c1.O=C(O)C(F)(F)F.O=C(O)C(F)(F)F` (stereo not drawn) [Cmpd AG], the figures for the EC50 in series [2] and in series [4] were 7 µM and above 20 µM, respectively. Moreover, the “TOXICITY LD50” value in series [3] stood at 35 µM.

Consider `O=C(O)C(F)(F)F.O=C(O)C(F)(F)F.c1ccc(Sc2ccc3ccccc3c2)c(CNCCN2CCCC2)c1` [Cmpd AH], for which the EC50 in series [2] was 9 µM; in series [4], above 20 µM. Further, the “TOXICITY LD50” value in series [3] is 38 µM.

Turning to `CN(C)CCCNCc1ccccc1Sc1ccc2ccccc2c1.O=C(O)C(F)(F)F.O=C(O)C(F)(F)F` [Cmpd AI], the EC50 is 6 µM in series [2] and above 20 µM in series [4]. Also, the “TOXICITY LD50” value in series [3] came to 33 µM.

`FC(F)(F)Oc1ccc(Sc2ccccc2CNC2CCN(Cc3ccccc3)CC2)cc1.O=C(O)C(F)(F)F.O=C(O)C(F)(F)F` [Cmpd AJ]: the EC50 is 8 µM in series [2] and above 20 µM in series [4]. The “TOXICITY LD50” value in series [3] is 38 µM.

Take `CN(CCCNCc1ccccc1Sc1cccc(C(F)(F)F)c1)c1ccccc1.O=C(O)C(F)(F)F.O=C(O)C(F)(F)F` [Cmpd AK]: the EC50 in series [2] is 9 µM; in series [4], above 20 µM. Moreover, the “TOXICITY LD50” value in series [3] amounted to 35 µM.

Take `CSc1ccc(Sc2ccccc2CNCCCN(C)c2ccccc2)cc1.O=C(O)C(F)(F)F.O=C(O)C(F)(F)F` [Cmpd AL]: the figures for the EC50 in series [2] and in series [4] were 8 µM and above 20 µM, respectively. In series [3], the “TOXICITY LD50” value turned out to be 20 µM.

For the compound `CCN1CCN(c2cc(-c3ccc(Sc4ccccc4C(C)C)c(C(F)(F)F)c3)ccn2)CC1.O=C(O)C(F)(F)F.O=C(O)C(F)(F)F` [Cmpd AN], the EC50 in series [2] is 17 µM; in series [4], above 20 µM. Also, the “TOXICITY LD50” value in series [3] is above 40 µM.

Consider `O=C(/C=C/c1ccc(Sc2ccc(Cl)cc2Cl)c([N+](=O)[O-])c1)N1CCNCC1` [Cmpd A], for which the values for the EC50 in series [2] and in series [4] were 14 µM and 17 µM, respectively. The “TOXICITY LD50” value in series [3] was above 40 µM.

Regarding `O=C(/C=C/c1ccc(Sc2ccc3c(c2)OCCO3)c([N+](=O)[O-])c1)N1CCNCC1` [Cmpd B], the EC50 in series [2] is 17 µM; in series [4] it was above 20 µM. Further, the “TOXICITY LD50” value in series [3] is above 40 µM.

With `CC(C)c1ccc(Sc2ccc(N)cc2Cl)cc1` [Cmpd E], the EC50 in series [2] is 16 µM; in series [4], above 20 µM. Moreover, the “TOXICITY LD50” value in series [3] is above 40 µM.

In the case of `CC(C)c1ccccc1Sc1ccc(/C=C/C(=O)N2CCN(C(=O)OC(C)(C)C)C(CO)C2)cc1[N+](=O)[O-]` (stereo not drawn) [Cmpd F], the 50% inhibitory concentration (IC50) in series [1] (setting [8]) was below 10 µM.

Turning to `CC(=O)N1CCN(C(=O)C2CC2c2ccc(Sc3ccccc3C(C)C)c(Cl)c2Cl)CC1` (stereo not drawn) [Cmpd G], the EC50 in series [2] is 16 µM; in series [4], above 20 µM. Also, the “TOXICITY LD50” value in series [3] is above 40 µM.

With `O=C(/C=C/c1ccc(Sc2cccc(N3CCC(N4CCCC4)CC3)c2)c(Cl)c1Cl)NCCCN1CCCC1=O` [Cmpd J], the values for the EC50 in series [2] and in series [4] were 8 µM and above 20 µM, respectively. The “TOXICITY LD50” value in series [3] was above 40 µM.

For the compound `O=C(/C=C/c1ccc(Sc2ccccc2CN2CCOCC2)c(Cl)c1)N1CCOCC1` [Cmpd L], in series [1] (setting [8]), the half-inhibitory concentration (IC50) was below 10 µM.

Turning to `Cl.O=C1CCCN1CCCNCc1ccc(Sc2cccc(Cl)c2Cl)c(Cl)c1` [Cmpd M], the EC50 in series [2] was 8 µM; in series [4] it was above 20 µM. Further, in series [3], the “TOXICITY LD50” value is 25 µM.

For `CN(C)CCCCNCc1ccc(Sc2ccc(Cl)cc2Cl)c(Cl)c1` [Cmpd N], the concentration for half-maximal inhibition (IC50) in series [1] (setting [8]) was below 10 µM.

`CN(C)CCCCNCc1ccccc1Sc1ccc(Cl)cc1Cl` [Cmpd O]: the half-inhibitory concentration (IC50) in series [1] (setting [8]) is below 10 µM.

For the compound `CN(C)CCN(Cc1ccc(Sc2ccc(Cl)cc2Cl)c(Cl)c1)C(=O)c1ccc(/C=C/C(=O)N2CCOCC2)cc1Cl` [Cmpd P], the IC50 in series [1] (setting [8]) is below 10 µM.

As to `CN(C)CCN(Cc1ccccc1Sc1ccc(Cl)cc1Cl)C(=O)c1ccc(/C=C/C(=O)N2CCOCC2)cc1Cl` [Cmpd Q], the IC50 in series [1] (setting [8]) is below 10 µM.

In the case of `CN(C)CCNCc1ccc(Sc2ccc(Cl)cc2Cl)c(Cl)c1` [Cmpd R], the 50% inhibitory concentration (IC50) in series [1] (setting [8]) is below 10 µM.

Take `CN(C)CCNCc1ccccc1Sc1ccc(Cl)cc1Cl` [Cmpd S]: in series [1] (setting [8]), the concentration for half-maximal inhibition (IC50) was < 10 µM and 1 µM.

Consider `CN1CCCN(C(=O)/C=C/c2ccc(Sc3ccc4c(ccn4C)c3)c(Cl)c2Cl)CC1.O=C(O)C(F)(F)F` [Cmpd T], for which the EC50 in series [2] stood at 4 µM; in series [4], 15 µM. Besides, the “TOXICITY LD50” value in series [3] was found to be 25 µM.

Turning to `CN1CCN(C(=O)/C=C/c2ccc(Sc3ccc(Cl)cc3Cl)c(Cl)c2)CC1` [Cmpd U], the EC50 is 15 µM in series [2] and above 20 µM in series [4]. Moreover, the “TOXICITY LD50” value in series [3] was above 40 µM.

For the compound `COC(=O)N1CCN(C(=O)/C=C/c2ccc(Sc3ccccc3C(C)C)c([N+](=O)[O-])c2)CC1` [Cmpd V], in series [1] (setting [8]), the concentration for half-maximal inhibition (IC50) is below 10 µM.

Consider `Nc1ccc(SCc2ccc(Cl)cc2Cl)c(Cl)c1` [Cmpd X], for which the EC50 in series [2] is 8 µM; in series [4], above 20 µM. Also, the “TOXICITY LD50” value in series [3] stood at 30 µM.

On to `N[C@@H]1Cc2ccccc2O[C@@H]1c1ccc2c(c1)CCO2` [Cmpd Y], for which the EC50 in series [2] was 7 µM; in series [4], above 20 µM. Moreover, the “TOXICITY LD50” value in series [3] came to 25 µM.

With “CD11b E336A / CD18 (from UniProt P11215) (receptor)”, the binding, % turned out to be 4.3% in series [5] and 0.7% in series [6].

Regarding “CD11b F333A / CD18 (from UniProt P11215) (receptor)”, the values for the binding, % in series [5] and in series [6] were 4.9% and 1.1%, respectively.

Take “CD11b I332A / CD18 (from UniProt P11215) (receptor)”: the binding, % in series [5] amounted to 205%. This compound displayed a binding, % of wildtype levels (% of wildtype levels) in series [6] of 123.

“CD11b Q327A / CD18 (from UniProt P11215) (receptor)”: the binding, % in series [5] is 140%. The same compound came in with a binding, % of wildtype levels (% of wildtype levels) in series [6] of 105.

“CD11b V254A / CD18 (from UniProt P11215) (receptor)” came in with a binding, % in series [5] of 147%. In series [6], this compound gave a binding, % of wildtype levels (% of wildtype levels) of 115.
